# Measurements taken from patent US11312726B2, “Thienodiazepine derivatives and application thereof” (priority 2017, dated 2022).
# Columns and labels:
# BRD4-BD2 = BRD4-BD2 (Homo sapiens (Human), UniProt O60885); experiment: BRD4 biochemical activity test (TR-FRET), BD2; settings: read-out: BRD4 Binding (BD2), IC50
# From the text: (§1) BRD4 Biochemical Activity Test
# (§2) 1) BRD4-BD1 and BRD4-BD2 proteins of BPS Company, polypeptide of ANASPEC Company, and test reagent of PerkinElmer Company were used in the experiments;
# (§3) 2) The TR-FRET experimental principle was used in the experiment to screen compounds.
# (§4) 3) Relevant control compounds
# (§5) 1) Preparation of the Compound Plate:
# (§6) Preparation of the compound plate in the experiment was achieved by Echo:
# (§7) 2) Preparation of Reaction Reagents:
# (§8) Relevant reaction reagents should be prepared on the day of the experiment:
# (§9) a) Formulation of 1× assay buffer;
# (§10) b) Formulation of 3× component solution for the experiment: […]
# (§11) 1. The reagent was taken out and placed on ice to naturally melt for later use;
# (§12) 2. “Solution A” (protein solution), “solution B” (polypeptide solution), and “solution C” (test reagent solution) used in the experiment were formulated with the 1× assay buffer, and during the formation of the 3× solution from the components used in the experiment reaction system, the amounts of solutions A, B and C must be enough for the required amounts in the experiment.
# (§13) 3) Experimental Operation Steps:
# (§14) The experiment plate was a plate that contained a gradient concentration of the compound and a corresponding DMSO solution and was prepared with ECHO before the experiment:
# (§15) a) The experiment plate was taken out, and 5 μL/well of “solution A” (protein solution) was added to columns 2-23 of the experiment plate, then 5 μL/well of 1× assay buffer was added to columns 1 and 24 of the experiment plate, and columns 1 and 24 were used as Min control in the experiment system;
# (§16) b) Centrifugation at 1000 rpm was carried out for 30 seconds;
# (§17) c) The plate was incubated at 23° C. for 20 minutes;
# (§18) d) After 20 minutes of incubation, 5 μL/well of “solution B” (polypeptide solution) was added to columns 1-24 of the experiment plate;
# (§19) e) Centrifugation at 1000 rpm was carried out for 30 seconds;
# (§20) f) The plate was incubated at 23° C. for 20 minutes;
# (§21) g) After 20 minutes of incubation, 5 μL/well of “solution C” (test reagent solution) was added to columns 1-24 of the experiment plate;
# (§22) h) Centrifugation at 1000 rpm was carried out for 30 seconds;
# (§23) i) The plate was incubated at 23° C. for 40 minutes;
# (§24) j) The experiment plate was placed on EnVision to read the plate.
# (§25) a) The corresponding Max control and Min control of each experiment plate were used to convert to the Z′ value of the experiment plate, and the Z′ value of each plate was ensured to be >0.5;
# (§26) b) The IC50 value was calculated from the signal of the control compound by XLFIT5, and ensured to be maintained within 3 times of the average value of historical data.
# BRD4-BD1 = BRD4-BD1 (Homo sapiens (Human), UniProt O60885); experiment: BRD4 biochemical activity test (TR-FRET), BD1; settings: read-out: BRD4 Binding (BD1), IC50
# From the text: as §1, §2, §3, §4, §5, §6, §7, §8, §9, §10, §11, §12, §13, §14, §15, §16, §17, §18, §19, §20, §21, §22, §23, §24, §25, §26
SMILES,IC50 (BRD4-BD2),IC50 (BRD4-BD1)
Cc1sc2c(c1C)C(c1ccc(Cl)cc1)=N[C@@H](CC(=O)Nc1ccc3c(c1)C(=O)NC3)c1nnc(C)n1-2 [Compound 1],0.011 µM,0.065 µM
Cc1sc2c(c1C)C(c1ccc(Cl)cc1)=N[C@@H](CC(=O)Nc1ccc3c(c1)CNC3=O)c1nnc(C)n1-2 [Compound 2],0.01 µM,0.049 µM
Cc1sc2c(c1C)C(c1ccc(Cl)cc1)=N[C@@H](CC(=O)Nc1ccn3c(=O)c(O)cnc3c1)c1nnc(C)n1-2 [Compound 5],0.009 µM,0.083 µM
Cc1sc2c(c1C)C(c1ccc(Cl)cc1)=N[C@@H](CC(=O)Nc1n[nH]c(=O)c3ccccc13)c1nnc(C)n1-2 [Compound 8],0.011 µM,0.051 µM
Cc1sc2c(c1C)C(c1ccc(Cl)cc1)=N[C@@H](CC(=O)Nc1ccc3c(c1)C1(CC1)C(=O)N3)c1nnc(C)n1-2 [Compound 9],0.011 µM,0.049 µM
Cc1sc2c(c1C)C(c1ccc(Cl)cc1)=N[C@@H](CC(=O)Nc1ccc3c(c1)C(=O)NC31CC1)c1nnc(C)n1-2 [Compound 10],0.016 µM,0.081 µM
Cc1sc2c(c1C)C(c1ccc(Cl)cc1)=N[C@@H](CC(=O)Nc1ccc3c(c1)C1(CC1)NC3=O)c1nnc(C)n1-2 [Compound 12],0.012 µM,0.04 µM
Cc1sc2c(c1C)C(c1ccc(Cl)cc1)=N[C@@H](CC(=O)Nc1ccc3c(c1)COC3)c1nnc(C)n1-2 [Compound 16],0.012 µM,0.06 µM
CC(=O)N1Cc2ccc(NC(=O)C[C@@H]3N=C(c4ccc(Cl)cc4)c4c(sc(C)c4C)-n4c(C)nnc43)cc2C1 [Compound 17],0.007 µM,0.024 µM
Cc1sc2c(c1C)C(c1ccc(Cl)cc1)=N[C@@H](CC(=O)Nc1ccc3c(c1)CNC3)c1nnc(C)n1-2 [Compound 18],0.008 µM,0.023 µM
Cc1sc2c(c1C)C(c1ccc(Cl)cc1)=N[C@@H](CC(=O)Nc1ccc3c(c1)CN(S(C)(=O)=O)C3)c1nnc(C)n1-2 [Compound 19],0.008 µM,0.049 µM
Cc1sc2c(c1C)C(c1ccc(Cl)cc1)=N[C@@H](CC(=O)Nc1ccc3c(c1)CN(C(N)=O)C3)c1nnc(C)n1-2 [Compound 20],0.011 µM,0.169 µM
Cc1sc2c(c1C)C(c1ccc(Cl)cc1)=N[C@@H](CC(=O)Nc1ccc3c(c1)CC(F)(F)C3)c1nnc(C)n1-2 [Compound 21],0.034 µM,0.522 µM
Cc1sc2c(c1C)C(c1ccc(Cl)cc1)=N[C@@H](CC(=O)Nc1ccc3c(c1)C(=O)SC3)c1nnc(C)n1-2 [Compound 22],0.01 µM,0.199 µM
Cc1sc2c(c1C)C(c1ccc(Cl)cc1)=N[C@@H](CC(=O)Nc1ccc3c(c1)C[C@@H](F)C3)c1nnc(C)n1-2 [Compound 24],0.017 µM,0.206 µM
Cc1sc2c(c1C)C(c1ccc(Cl)cc1)=N[C@@H](CC(=O)Nc1ccc3c(c1C)COC3)c1nnc(C)n1-2 [Compound 25],0.02 µM,0.079 µM
Cc1cc2c(cc1NC(=O)C[C@@H]1N=C(c3ccc(Cl)cc3)c3c(sc(C)c3C)-n3c(C)nnc31)COC2 [Compound 26],0.03 µM,0.112 µM
Cc1sc2c(c1C)C(c1ccc(Cl)cc1)=N[C@@H](CC(=O)Nc1ccc3c(c1)CC1(COC1)C3)c1nnc(C)n1-2 [Compound 27],0.009 µM,0.055 µM
Cc1sc2c(c1C)C(c1ccc(Cl)cc1)=N[C@@H](CC(=O)Nc1cc3c(cc1Cl)COC3)c1nnc(C)n1-2 [Compound 28],0.015 µM,0.06 µM
Cc1sc2c(c1C)C(c1ccc(Cl)cc1)=N[C@@H](CC(=O)Nc1cc3c(cc1F)COC3)c1nnc(C)n1-2 [Compound 29],0.016 µM,0.074 µM
Cc1sc2c(c1C)C(c1ccc(Cl)cc1)=N[C@@H](CC(=O)Nc1ccc3c(c1)C(=O)OC3)c1nnc(C)n1-2 [Compound 30],0.009 µM,0.051 µM
Cc1sc2c(c1C)C(c1ccc(Cl)cc1)=N[C@@H](CC(=O)Nc1ccc3c(c1)OCCOCCOCCO3)c1nnc(C)n1-2 [Compound 31],0.005 µM,0.037 µM
Cc1sc2c(c1C)C(c1ccc(Cl)cc1)=N[C@@H](CC(=O)Nc1ccc3nonc3c1)c1nnc(C)n1-2 [Compound 33],0.019 µM,0.248 µM
Cc1sc2c(c1C)C(c1ccc(Cl)cc1)=N[C@@H](CC(=O)Nc1ccc3c(c1)[C@H]1CC[C@@H]3O1)c1nnc(C)n1-2 [Compound 35],0.012 µM,0.155 µM
Cc1sc2c(c1C)C(c1ccc(Cl)cc1)=N[C@@H](CC(=O)Nc1ccc3c(c1)C(=O)NC3=O)c1nnc(C)n1-2 [Compound 36],0.01 µM,0.126 µM
Cc1sc2c(c1C)C(c1ccc(Cl)cc1)=N[C@@H](CC(=O)Nc1ccc3c(c1)C(C)(C)OC3=O)c1nnc(C)n1-2 [Compound 37],0.011 µM,0.148 µM
